Experimental data: PubChem BioAssay (NCI)
Where “and” joins values, the source holds several entries; their conditions need not be identical. Identical values can stand only once.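 96-well plates; 48 h exposure; 5 concentrations. Endpoints by linear interpolation between flanking doses. Not reached: highest tested concentration assigned. GI50 is the concentration that inhibits growth by half. At the TGI there is no net growth.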

Legend:
Assay in all cases: NCI anticancer screen, dose series, 48 h
[1] = system: TK-10 renal
[2] = system: HOP-92 NSCLC
[3] = system: UACC-62 melanoma
[4] = system: OVCAR-4 ovarian
[5] = system: HCT-116 colon
[6] = system: RXF 393 renal
[7] = system: CAKI-1 renal
[8] = system: SN12C renal
[9] = system: SK-MEL-5 melanoma
[10] = system: RPMI-8226 leukemia

Structure (SMILES)	TGI [1]	TGI [2]	TGI [3]	TGI [4]	TGI [5]	TGI [6]	TGI [7]	TGI [8]	TGI [9]	TGI [10]	GI50 [4]	GI50 [5]	GI50 [1]	GI50 [2]	GI50 [3]	GI50 [6]
CCN(CC(=O)O)C(=O)c1cccnc1	> 100 µM	> 100 µM	> 100 µM	> 100 µM	> 100 µM	> 100 µM	> 100 µM	> 100 µM	–	–	–	–	–	–	–	–
COc1cc2c(ccc3c4cc(OC)c(OC)cc4c[n+](C)c23)cc1O	–	> 75 µM	11.5 µM	> 65.8 µM	> 60.3 µM	> 75 µM	> 75 µM	22.1 µM	52.7 µM	> 75 µM	–	–	–	–	–	–
CCOC(=O)C(NC(=O)c1ccco1)(Nc1nc2ccc(OCC)cc2s1)C(F)(F)F (configuration not stated)	> 100 µM	47.5 µM	> 100 µM	> 100 µM	91.2 µM	30.9 µM	45.8 µM	> 100 µM	47.8 µM	–	–	–	–	–	–	–
CCOC(=O)C1=NN(c2ccc(C)cc2)C2=CC(C)=NN(C)C(=S)N21	> 100 µM	–	> 100 µM	> 100 µM	> 100 µM	30.1 µM	55.1 µM	> 100 µM	> 100 µM	> 100 µM	–	–	–	–	–	–
COc1ccc2c(c1)[nH]c1c(/C=C/c3ccccc3)nccc12	39.7 µM	44.4 µM	28.9 µM	> 100 µM	30.4 µM	38 µM	52 µM	30.2 µM	36.6 µM	93.5 µM	–	–	–	–	–	–
CCn1c(-c2ccc(N=NNc3ccc(-c4n[nH]c(=S)n4CC)cc3)cc2)n[nH]c1=S	> 100 µM	7.71 µM	–	5.41 µM	> 100 µM	11.8 µM	–	> 100 µM	3.48 µM	5.64 µM	–	–	–	–	–	–
[N-]=[N+]=CC(=O)c1ccccc1C#CCCc1ccccc1	> 100 µM	63.6 µM	69.8 µM	> 100 µM	48.9 µM	> 100 µM	–	> 100 µM	32.2 µM	50.2 µM	–	–	–	–	–	–
CCCCCCCCC/C=C/C=C/C(=O)NCC(=O)NC1C(O)C(O)C(Nc2ncnc3nc[nH]c23)OC1C(O)CO (configuration not stated)	1.71 µM	–	0.0171 µM	0.0515 µM	> 100 µM	0.0163 µM	0.0105 µM and 0.0747 µM	0.913 µM	0.12 µM	–	0.22 nM	2.51 nM	–	–	–	–
NC(=O)c1c(NC(=O)c2ccccn2)sc2c1CCC(=O)C2	> 100 µM	> 100 µM	67.1 µM	–	> 100 µM	> 100 µM	–	–	–	–	–	3500 nM	5 µM	2750 nM	2520 nM	3.53 µM
Nc1nc(SCCc2ccccc2)nc2nc3c(c(-c4ccccc4)c12)CCCC3	> 100 µM	–	> 100 µM	> 100 µM	–	81.1 µM	> 100 µM	> 100 µM	–	> 100 µM	–	–	–	–	–	–
NCCSC(c1ccccc1)c1ccccc1	31.8 µM	37.2 µM	31.3 µM	46.8 µM	30.9 µM	39.8 µM	67.2 µM	> 100 µM	31.1 µM	37.4 µM	–	–	–	–	–	–
C(=N\NC1=NCCN1)/c1ccc(-c2cn3cc(/C=N/NC4=NCCN4)ccc3n2)cc1	56.1 µM	43.2 µM	> 100 µM	> 100 µM	> 62.4 µM	> 100 µM	49.4 µM	> 63.1 µM	> 100 µM	> 100 µM	–	–	–	–	–	–
O=C(C[n+]1ccc2ccccc2c1)c1ccc2ccc3ccccc3c2c1	8.74 µM	18.8 µM	9.72 µM	19.7 µM	13.6 µM	16.3 µM	20.1 µM	14.7 µM	14.4 µM	0.646 µM	–	–	–	–	–	–
CC(C)(C)c1cc(C2=NNC(c3ccccc3)C2)cc(C(C)(C)C)c1O (configuration not stated)	29.4 µM	31.2 µM	28 µM	33.2 µM	28.3 µM	23.2 µM	28.2 µM	32.7 µM	23 µM	43.8 µM	–	–	–	–	–	–
Clc1cc2c(cc1Cl)CC(NCCN1CCCC1)CC2 (configuration not stated)	27.6 µM	–	8.15 µM	35.9 µM	26.3 µM	–	30.2 µM	31.4 µM	14.7 µM	38.1 µM	–	–	–	–	–	–
Cc1nn(-c2ccccc2)c(C)c1/C=N/N=C1\SCC(=O)N1c1ccccc1	93.4 µM	–	68.3 µM	41.7 µM	36.5 µM	42.7 µM	44.9 µM	> 100 µM	30.3 µM	35.3 µM	–	–	–	–	–	–
Nc1cccc(/C=C/C(=O)N2CCN(CCOC(c3ccccc3)c3ccccc3)CC2)c1	28.3 µM	26.2 µM	29.6 µM	26.1 µM	28.9 µM	28.7 µM	34.8 µM	33.9 µM	29.4 µM	26.7 µM	–	–	–	–	–	–
C[C@H](CCC(=O)O)[C@H]1CC[C@@]2(C)[C@@H]3C(=O)C[C@H]4C(C)(C)[C@@H](O)CC[C@]4(C)[C@H]3C(=O)C[C@]12C	> 100 µM	> 100 µM	> 100 µM	> 100 µM	> 100 µM	> 100 µM	> 100 µM	> 100 µM	> 100 µM	> 100 µM	–	–	–	–	–	–
CCC1CN(C(=O)c2ccccc2)C(Cc2c[nH]c3ccccc23)C(=O)C1CC(=O)OC (configuration not stated)	> 100 µM	> 100 µM	> 100 µM	> 100 µM	–	> 100 µM	> 100 µM	> 100 µM	> 100 µM	–	–	–	–	–	–	–
CCC(C)C1=C(OC(C)=O)[N+]2([O-])Oc3ccc(-c4c(OC(C)=O)c(OC(C)=O)c(-c5ccc(OC(C)=O)cc5)c(OC(C)=O)c4OC(C)=O)cc3OC2(C(C)CC)C(=O)N1OC(C)=O (configuration not stated)	> 50 µM	–	16.7 µM	38 µM	22.8 µM	> 50 µM	> 50 µM	> 50 µM	23 µM	22.8 µM	–	–	–	–	–	–
CN(C)CC(CC1=C(CC(CN(C)C)N(C)C)CCC1)N(C)C (configuration not stated)	–	> 100 µM	> 100 µM	> 100 µM	> 100 µM	> 100 µM	> 100 µM	> 100 µM	> 100 µM	> 100 µM	–	–	–	–	–	–
